From PMC9127186, “Molecular Basis Underlying Hepatobiliary and Renal Excretion of Phenolic Acids of Salvia miltiorrhiza Roots (Danshen)” (Frontiers in Pharmacology, 2022)

Columns and labels:
human MDR1 = human MDR1 (Homo sapiens, UniProt P08183); experiment: Vesicular transport assay, inside-out membrane vesicles expressing human MDR1; details: 10 min
Experimental: (§1) Inside-out membrane vesicles (5 mg protein/mL), prepared from insect cells expressing human multidrug resistance-associated protein (MRP) 2, MRP3, MRP4, breast cancer resistance protein (BCRP), bile salt export pump (BSEP), and multidrug resistance protein (MDR) one and rat Mrp2, Mrp4, Bcrp, and Bsep, and vesicles (5 mg protein/mL; prepared from the insect cells expressing no ABC transporter; serving as negative control) were obtained from Genomembrane (Kanazawa, Japan).
(§2) The test Danshen compounds at 100 µM final concentration were separately incubated with the membrane vesicles for 10 min. Buffer C (50 mM MOPS-tris, 70 mM KCl, 7.5 mM MgCl2, pH 7.0) was used for preincubation and incubation, while buffer D (40 mM MOPS-tris, 70 mM KCl, pH 7.0) was used for vesicle washing. The transport rate (pmol/mg protein/min) of the test Danshen compound was calculated using Equation (2): Transport=(CV×VV)/T/WV (2) where C V, V V, T, and W V represent concentration of the compound in vesicular lysates supernatant (μM), volume of the lysates (μL), incubation time (10 min), and amount of vesicle protein amount per well (0.05 mg), respectively. Differential transport of the test Danshen compound between ATP-containing vesicles and AMP-containing vesicles was defined as net transport ratio (TransportATP/TransportAMP ratio). […] All the incubation samples were analyzed by liquid chromatography/mass spectrometry.

human PEPT2 = biological target: T1, human PEPT2 (Homo sapiens, UniProt Q16348); experiment: Cellular transport assay, HEK-293 cells expressing human PEPT2; details: Danshen phenolic acid at 100 μM final concentration, 10 min, incubation pH 6.0; human PEPT2-transfected vs mock cells
T1 sequence (Q16348 1-729): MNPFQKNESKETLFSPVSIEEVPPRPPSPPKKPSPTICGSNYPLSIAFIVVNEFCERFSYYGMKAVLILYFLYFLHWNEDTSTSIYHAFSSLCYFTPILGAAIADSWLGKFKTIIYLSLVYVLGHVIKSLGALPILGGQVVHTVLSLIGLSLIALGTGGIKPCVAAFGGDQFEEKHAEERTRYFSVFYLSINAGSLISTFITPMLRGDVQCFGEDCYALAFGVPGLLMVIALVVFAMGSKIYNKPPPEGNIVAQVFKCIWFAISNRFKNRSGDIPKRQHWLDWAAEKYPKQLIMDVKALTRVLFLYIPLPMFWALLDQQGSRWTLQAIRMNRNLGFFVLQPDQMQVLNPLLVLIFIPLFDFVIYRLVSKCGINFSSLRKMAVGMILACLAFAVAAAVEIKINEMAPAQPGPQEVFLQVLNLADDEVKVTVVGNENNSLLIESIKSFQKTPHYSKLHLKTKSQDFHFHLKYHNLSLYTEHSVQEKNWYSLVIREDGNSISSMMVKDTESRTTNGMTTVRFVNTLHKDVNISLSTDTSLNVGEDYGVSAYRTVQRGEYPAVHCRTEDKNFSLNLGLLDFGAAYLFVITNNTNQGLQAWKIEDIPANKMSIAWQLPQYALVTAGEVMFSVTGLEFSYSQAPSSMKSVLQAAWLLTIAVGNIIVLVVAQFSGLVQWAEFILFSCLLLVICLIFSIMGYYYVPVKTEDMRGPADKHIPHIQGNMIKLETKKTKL

human MRP4 = biological target: T2, human MRP4 (Homo sapiens, UniProt O15439); experiment: Vesicular transport assay, inside-out membrane vesicles expressing human MRP4; details: for TransportATP/TransportAMP ratio (net transport ratio): 10 min
T2 sequence (O15439 1-1325): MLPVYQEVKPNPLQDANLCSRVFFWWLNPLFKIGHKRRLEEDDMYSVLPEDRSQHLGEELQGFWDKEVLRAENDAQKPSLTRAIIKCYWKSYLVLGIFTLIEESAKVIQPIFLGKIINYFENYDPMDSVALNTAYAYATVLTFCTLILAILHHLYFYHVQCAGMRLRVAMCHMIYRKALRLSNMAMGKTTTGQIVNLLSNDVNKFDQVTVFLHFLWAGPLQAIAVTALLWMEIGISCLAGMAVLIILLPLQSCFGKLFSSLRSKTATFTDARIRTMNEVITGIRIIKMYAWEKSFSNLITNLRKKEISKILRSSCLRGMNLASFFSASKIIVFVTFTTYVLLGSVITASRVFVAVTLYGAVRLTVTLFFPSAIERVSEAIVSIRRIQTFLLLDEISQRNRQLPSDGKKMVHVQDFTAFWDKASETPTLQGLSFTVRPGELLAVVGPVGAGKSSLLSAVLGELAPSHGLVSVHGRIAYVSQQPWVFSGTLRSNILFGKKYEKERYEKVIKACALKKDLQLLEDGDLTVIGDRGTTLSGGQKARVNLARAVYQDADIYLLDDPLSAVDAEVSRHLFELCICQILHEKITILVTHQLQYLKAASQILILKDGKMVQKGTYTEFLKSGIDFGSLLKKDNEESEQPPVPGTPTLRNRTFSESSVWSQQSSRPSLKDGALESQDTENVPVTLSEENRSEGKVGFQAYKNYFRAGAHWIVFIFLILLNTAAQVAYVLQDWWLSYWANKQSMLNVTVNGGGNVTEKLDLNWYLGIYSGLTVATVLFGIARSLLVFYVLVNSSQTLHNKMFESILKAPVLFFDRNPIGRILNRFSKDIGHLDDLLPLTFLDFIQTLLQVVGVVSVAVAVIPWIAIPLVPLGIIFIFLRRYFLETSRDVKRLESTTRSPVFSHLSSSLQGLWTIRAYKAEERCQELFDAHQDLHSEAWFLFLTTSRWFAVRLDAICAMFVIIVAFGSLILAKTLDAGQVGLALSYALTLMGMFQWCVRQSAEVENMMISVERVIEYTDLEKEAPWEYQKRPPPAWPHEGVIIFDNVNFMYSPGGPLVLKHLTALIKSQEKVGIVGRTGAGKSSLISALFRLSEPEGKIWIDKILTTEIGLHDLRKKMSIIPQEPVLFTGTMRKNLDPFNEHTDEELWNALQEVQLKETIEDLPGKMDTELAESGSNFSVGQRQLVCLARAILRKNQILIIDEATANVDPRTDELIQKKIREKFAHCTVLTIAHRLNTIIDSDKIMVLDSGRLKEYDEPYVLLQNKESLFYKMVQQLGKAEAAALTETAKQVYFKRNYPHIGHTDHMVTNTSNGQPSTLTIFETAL
Experimental: as §1, §2

[1] = Danshen phenolic acid at 100 μM final concentration, human MDR1 vesicles
[2] = Danshen phenolic acid at 100 μM final concentration, human MRP4 vesicles

Sequence of human MDR1 (P08183 whole entry): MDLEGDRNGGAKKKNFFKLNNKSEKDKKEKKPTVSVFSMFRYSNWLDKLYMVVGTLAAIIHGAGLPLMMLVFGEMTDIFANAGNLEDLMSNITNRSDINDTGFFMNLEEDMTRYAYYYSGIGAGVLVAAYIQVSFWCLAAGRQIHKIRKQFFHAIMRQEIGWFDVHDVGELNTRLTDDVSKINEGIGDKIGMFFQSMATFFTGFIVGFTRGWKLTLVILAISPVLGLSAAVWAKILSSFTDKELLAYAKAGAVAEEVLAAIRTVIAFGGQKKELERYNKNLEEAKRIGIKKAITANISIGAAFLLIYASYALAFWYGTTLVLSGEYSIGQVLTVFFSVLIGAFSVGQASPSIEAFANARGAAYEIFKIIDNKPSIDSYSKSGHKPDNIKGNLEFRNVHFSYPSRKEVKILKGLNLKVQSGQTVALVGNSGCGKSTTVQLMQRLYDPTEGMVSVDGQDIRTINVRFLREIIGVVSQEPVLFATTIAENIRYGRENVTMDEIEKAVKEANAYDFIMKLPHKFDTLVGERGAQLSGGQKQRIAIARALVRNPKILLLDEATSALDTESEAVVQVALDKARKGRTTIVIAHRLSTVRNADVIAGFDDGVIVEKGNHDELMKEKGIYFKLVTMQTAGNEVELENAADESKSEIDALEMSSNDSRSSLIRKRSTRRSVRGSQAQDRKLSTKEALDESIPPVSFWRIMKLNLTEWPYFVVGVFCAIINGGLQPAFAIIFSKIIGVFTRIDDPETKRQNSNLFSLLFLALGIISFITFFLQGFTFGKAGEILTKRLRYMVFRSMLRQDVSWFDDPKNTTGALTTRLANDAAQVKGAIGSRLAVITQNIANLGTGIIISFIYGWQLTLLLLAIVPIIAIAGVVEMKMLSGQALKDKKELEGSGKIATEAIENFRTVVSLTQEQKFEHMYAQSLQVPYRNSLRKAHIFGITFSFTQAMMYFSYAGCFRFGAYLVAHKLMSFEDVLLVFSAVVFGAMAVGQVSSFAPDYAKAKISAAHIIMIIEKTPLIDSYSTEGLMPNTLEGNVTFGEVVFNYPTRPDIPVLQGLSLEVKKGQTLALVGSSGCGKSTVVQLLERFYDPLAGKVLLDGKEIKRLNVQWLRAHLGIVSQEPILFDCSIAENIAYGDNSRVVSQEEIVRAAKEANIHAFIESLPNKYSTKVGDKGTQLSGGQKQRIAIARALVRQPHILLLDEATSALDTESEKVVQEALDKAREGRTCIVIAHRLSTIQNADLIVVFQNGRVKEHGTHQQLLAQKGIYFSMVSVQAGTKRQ

substrate of human MRP4 (human MRP4)	Compound	TransportATP/TransportAMP ratio (net transport ratio) (human MDR1; [1])	TransportTC/TransportMC ratio (net transport ratio) (human PEPT2)	TransportATP/TransportAMP ratio (net transport ratio) (human MRP4; [2])	TransportATP/TransportAMP ratio (net transport ratio) (human MDR1; human, 100 μM, pH 7)	TransportATP/TransportAMP ratio (net transport ratio) (human MRP4; human, 100 μM, pH 7)
–	O=C(/C=C/c1ccc(O)c2c1[C@H](C(=O)O)[C@@H](c1ccc(O)c(O)c1)O2)O[C@H](Cc1ccc(O)c(O)c1)C(=O)O [Lithospermic acid, lithospermic acid]	1.26 ± 0.09	0.74 ± 0.06	1.36 ± 0.14	–	–
–	O=C(O)c1ccc(O)c(O)c1 [Protocatechuic acid, protocatechuic acid]	0.93 ± 0.04	1.43 ± 0.32	1.25 ± 0.14	–	–
–	O=C(/C=C/c1ccc(O)c(O)c1)O[C@H](Cc1ccc(O)c(O)c1)C(=O)O [Rosmarinic acid, rosmarinic acid]	–	–	–	1.04 ± 0.18	1.99 ± 0.08
–	O=C(/C=C/c1ccc(O)c(O)c1/C=C/c1ccc(O)c(O)c1)O[C@H](Cc1ccc(O)c(O)c1)C(=O)O [Salvianolic acid A, salvianolic acid A]	–	–	–	1.26 ± 0.05	1.56 ± 0.05
substrate	O=C(O)Cc1c(/C=C/C(=O)O[C@H](Cc2ccc(O)c(O)c2)C(=O)O)ccc(O)c1O [Salvianolic acid D, salvianolic acid D]	0.92 ± 0.23	1.03 ± 0.11	5.27 ± 0.51	–	–
–	salvianolic acid B	1.66 ± 0.12	1.06 ± 0.12	1.99 ± 0.06	–	–
